We go through three compounds from paper PMC10935558, “In vitro and in silico studies reveal antidiabetic properties of arylbenzofurans from the root bark of Morus mesozygia Stapf” (Frontiers in Pharmacology, 2024).

“And” between values parts separate entries of the source, which are not always exact repeats. Identical values can stand only once.

Assay [1] addresses T1, human recombinant DPP4 enzyme (Homo sapiens, UniProt P27487).
T1 construct: purchased abcam, Berlin, Germany
Nature of the assay: In-vitro dipeptidyl peptidase-4 (DPP4) inhibition assay (inhibitor screening kit). The format is biochemical. As for the experimental part: The DPP4 inhibitor activities of the three moracins were determined by using the DPP4 inhibitor screening kit following the manufacturer’s instructions (abcam, Berlin, Germany). The established DPP4 inhibitor sitagliptin served as the positive inhibitor control, whereas assay buffer was only used as the control for DPP4 enzyme activity and was set to 100%. 30 μL of assay buffer and 10 μL human recombinant DPP4 enzyme were mixed in 96-well microtiter plates with 10 μL of 0.1- or 1-mM moracin solutions, 1 mM sitagliptin, or assay buffer. Following 10 min pre-incubation at 37°C, 50 μL of substrate solution was added to each well. The fluorescence signal (excitation wavelength of 360 nm, emission wavelength of 465 nm) was measured after 30 min incubation at 37°C (Tecan Infinite 200 micro-plate reader).
GraphPad Prism, version 5.0 was used for the statistical analysis of data, which were expressed as mean ± standard deviation. Multiple comparisons of IC50 values were carried out by using one-way ANOVA followed by Tukey’s test. For the DPP4 inhibition results, a one-way ANOVA followed by Dunnett’s post-hoc test was conducted to compare the means of treatment groups to that of the control group without inhibitor.

Assay [2] addresses Saccharomyces cerevisiae α-glucosidase. Nature of the assay: In-vitro α-glucosidase inhibition assay. The format is biochemical. The settings on record: for IC50: n = 5 independent experiments in duplicate, read-out: α-glucosidase IC50 (range). The method, then:
The α-glucosidase activity assay was carried out as described previously ([Günther et al., 2021]). Briefly, 10 mM stock solutions of the arylbenzofurans (1—3) prepared in DMSO were diluted in water. Fifteen µl of these diluted moracin compounds were mixed in 96-well microtest plates (VWR, Darmstadt, Germany) with 105 μL of 0.1 M phosphate buffer, pH 6.8 and 15 μL of a 0.5 U/mL Saccharomyces cerevisiae α-glucosidase solution (Sigma-Aldrich, Taufkirchen, Germany). The final arylbenzofurans concentrations range from 0–200 μM, while the final concentration of the extract and fractions ranges from 100–500 μg/mL. […] Following 5 min pre-incubation at 37°C, the reaction was started with 15 μL of 10 mM p-nitrophenyl-α-D-glucopyranoside (Sigma-Aldrich, Taufkirchen, Germany). After 20 min at 37 °C, 50 μL 2 M Na2CO3 stop solution was added (VWR, Darmstadt, Germany). The absorbance was measured photometrically at 405 nm (iEMS Reader MF). Five independent experiments were performed in duplicate.
(§1) GraphPad Prism, version 5.0 was used for the statistical analysis of data, which were expressed as mean ± standard deviation. Multiple comparisons of IC50 values were carried out by using one-way ANOVA followed by Tukey’s test.

The target in assay [3] is T2, porcine pancreatic α-amylase (Sus scrofa, UniProt P00690).
T2 sequence (P00690 16-511): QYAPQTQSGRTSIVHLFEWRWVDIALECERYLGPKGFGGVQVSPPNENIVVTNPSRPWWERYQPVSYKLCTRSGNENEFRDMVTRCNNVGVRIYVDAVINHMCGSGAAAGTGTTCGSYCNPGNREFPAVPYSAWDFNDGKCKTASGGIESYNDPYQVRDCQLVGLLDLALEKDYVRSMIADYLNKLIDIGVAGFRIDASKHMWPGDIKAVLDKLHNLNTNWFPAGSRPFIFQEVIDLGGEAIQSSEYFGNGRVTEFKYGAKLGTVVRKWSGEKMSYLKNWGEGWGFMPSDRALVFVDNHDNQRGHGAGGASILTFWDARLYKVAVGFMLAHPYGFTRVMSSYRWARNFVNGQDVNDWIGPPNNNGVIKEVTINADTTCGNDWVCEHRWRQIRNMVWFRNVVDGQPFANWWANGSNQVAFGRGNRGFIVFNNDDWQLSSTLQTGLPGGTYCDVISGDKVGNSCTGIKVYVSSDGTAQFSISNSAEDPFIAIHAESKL
In words: In-vitro α-amylase inhibition assay. The format is biochemical. The following applies: n = 2 independent experiments in duplicate; read-out: α-amylase IC50 (range). As for the experimental part: To this end, moracins, extracts, and fraction stocks were diluted with water to give concentrations of 1,000 and 3,000 μg/mL. Of these dilutions, 15 μL were mixed with 35 µL distilled H2O and 50 μL of porcine pancreatic α-amylase (2.5 U/mL) in 20 mM sodium phosphate buffer containing 6.7 mM NaCl, pH 6.9. Following 10 min pre-incubation at 25°C, 50 μL 1% starch solution that had been cooked for 15 min in the same buffer was added to start the reaction. After 10 min at 25°C, 100 μL of a color reagent (1% 3,5-dinitrosalicylic acid and 30% sodium potassium tartrate in 0.4 M NaOH, all chemicals from Sigma-Aldrich, Taufkirchen, Germany) were added. The mixture was incubated for an additional 5 min at 100 °C and cooled to room temperature before the absorbance was measured at 540 nm by a microplate reader (iEMS Reader MF, MTX Lab Systems, Helsinki, Finland). […] The percentage inhibition of α-amylase was calculated by using the following equation: Inhibition%=AbC−AbCblank−AbS−AbSblank/AbC−AbCblank×100 AbC, absorbance of the control; AbS, absorbance of the sample.
as §1

Assay [4] has as its system chronic hepatitis C virus (HCV) cell. Set-up: method as in Hyun et al., 2007. The following applies: antiviral assay; ref Hyun et al., 2007; read-out: IC50 against HCV cell; cited from earlier work.
For assay [5], the system named is protein tyrosine phosphatase 1B (PTP1B). Set-up: method as in Cui et al., 2006. The settings on record: ref Cui et al., 2006; cited from earlier work.
The subject of a further assay is H9c2 cells. Also noted: method as in Zheng et al., 2017. The settings on record: doxorubicin-induced myocardial toxicity in H9c2 cells; ref Zheng et al., 2017; read-out: EC50 cytoprotective effect; cited from earlier work.

T1 sequence (P27487 whole entry): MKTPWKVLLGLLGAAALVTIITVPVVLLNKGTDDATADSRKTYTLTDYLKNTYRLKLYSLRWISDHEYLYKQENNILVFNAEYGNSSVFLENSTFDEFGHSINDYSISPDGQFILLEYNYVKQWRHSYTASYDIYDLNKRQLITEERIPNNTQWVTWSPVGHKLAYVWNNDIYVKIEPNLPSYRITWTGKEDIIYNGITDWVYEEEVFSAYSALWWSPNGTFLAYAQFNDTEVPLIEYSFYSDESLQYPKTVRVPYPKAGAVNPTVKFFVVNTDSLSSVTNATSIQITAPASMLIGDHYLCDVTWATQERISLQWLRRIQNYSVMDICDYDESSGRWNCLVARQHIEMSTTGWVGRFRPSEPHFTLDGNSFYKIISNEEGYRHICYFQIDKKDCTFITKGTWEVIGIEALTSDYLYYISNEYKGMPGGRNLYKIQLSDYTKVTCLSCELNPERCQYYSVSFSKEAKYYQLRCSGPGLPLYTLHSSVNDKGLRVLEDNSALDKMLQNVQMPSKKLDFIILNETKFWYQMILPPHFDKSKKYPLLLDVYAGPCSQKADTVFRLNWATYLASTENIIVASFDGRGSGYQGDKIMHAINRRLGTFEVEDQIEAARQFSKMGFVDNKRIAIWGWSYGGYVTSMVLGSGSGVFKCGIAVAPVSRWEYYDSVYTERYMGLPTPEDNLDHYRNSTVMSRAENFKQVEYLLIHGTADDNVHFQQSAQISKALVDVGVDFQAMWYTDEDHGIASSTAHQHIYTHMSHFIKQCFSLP

As to `CC(C)(O)CCc1c(O)ccc2cc(-c3cc(O)cc(O)c3)oc12` [Compound 1, 5-(6-hydroxy-7-(3-hydroxy-3-methylbutyl)benzofuran-2-yl)benzene-1,3-diol], the “DPP4 inhibition (in words)” value in assay [1] is recorded as “moderate inhibitors”. Moreover, the inhibition at 100 µM in assay [1] (at 100 μM, read-out: inhibitory activity against DPP4) is 15%. Moreover, the IC50 in assay [2] is ~17 µM and 16.9 µM; in assay [3], > 300 µM.
Consider `Oc1cc(O)cc(-c2cc3ccc(O)cc3o2)c1` [Compound 3, Moracin M], for which the “DPP4 inhibition (in words)” value in assay [1] was “moderate inhibitors”. Moreover, the “residual peptidase (DPP4) activity compared to control” value in assay [1] (at 100 μM) was determined as 62.7%. In addition, in assay [2], the “fold less potent than 1 and 2 (α-glucosidase)” value was ~2.4 fold. The half-inhibitory concentration (IC50) in assay [2] is 40.9 µM; in assay [3] it was > 300 µM; in assay [4], > 100 µM.
Take `CC1(C)Oc2cc3oc(-c4cc(O)cc(O)c4)cc3cc2C[C@H]1O` [Compound 2, Moracin P]: in assay [5], the “inhibitory effect against PTP1B (in words)” value is listed as “marginal inhibitory effect”. Besides, the half-inhibitory concentration (IC50) was ~17 µM and 16.6 µM in assay [2]; > 300 µM in assay [3]; 42.9 µM in assay [4]. For the same compound, the 50% effective concentration (EC50) in the assay on H9c2 cells was 8.8 µM.

Broadly, the IC50 is the concentration needed to halve the response being measured. The term EC50 denotes the concentration at which the effect is half-maximal.
